Assay results reported in patent publication US20160264636A1, “PEPTIDE INHIBITORS OF TEAD/YAP-TAZ INTERACTION” (UNIVERSITE PIERRE ET MARIE CURIE (PARIS 6), priority 2013, published 2016).
Peptide text beside a SMILES is read from it.

Key:
[1] = test system: MP66 uveal melanoma cells; experiment: MTT cytotoxicity assay, MP66; format: cell-based, human; conditions: MM66 (so in the source); 100 μM; 72 h
Protocol: (§1) The cytotoxicity of penetrating peptides or chemotherapeutic agents, alone or in combination, was evaluated by the (3-(4,5-dimethylthiazol-2-yl)-2,5-diphenyltetrazolium bromide) tetrazolium (MTT) reduction assay. The cells were seeded in 96-well plates (100 μL/well) at a cell density defined from growth curves. After 24 hours of incubation, cells were treated with the peptides for 72 hours. The wells were rinsed two times with RPMI. After washing, 10 μl of stock MTT solution (5 mg/ml; MTT (SIGMA #M-2128) in PBS Dubecco's 1× without Ca^2+ and Mg^2+) was added to a final volume of 100 μl of culture medium. Cell lines were incubated for additional 4 hours at 37° C. under humid atmosphere with 5% (v/v) CO2. The formation of blue formazan crystals was detected under a microscope. An equal volume of 10% SDS (MERCK, #926.238) in 10 mM HCl was added to each well and the plate was placed in the incubator overnight to dissolve formazan crystals. The plates were mixed to ensure complete solubilisation of formazan crystals and absorbance was measured at 570 nm and 620 nm. The percentage of viable cells was estimated using the formula: % cell viability=ΔOD(570-620) treated/ΔOD(570-620)control×100. […]
(§2) All the uveal melanoma cell lines were treated for 72 h with different concentrations of the peptides TAZ, “LV”, YAP and TEAD (SEQ ID NO: 35, 36, 37). Cytotoxicity was analysed as described in example 2. […]

[2] = test system: MP41 uveal melanoma cells; experiment: MTT cytotoxicity assay, MP41; format: cell-based, human; conditions: 72 h
Protocol: (§3) The cytotoxicity of penetrating peptides or chemotherapeutic agents, alone or in combination, was evaluated by the (3-(4,5-dimethylthiazol-2-yl)-2,5-diphenyltetrazolium bromide) tetrazolium (MTT) reduction assay. The cells were seeded in 96-well plates (100 μL/well) at a cell density defined from growth curves. After 24 hours of incubation, cells were treated with the peptides for 72 hours. The wells were rinsed two times with RPMI. After washing, 10 μl of stock MTT solution (5 mg/ml; MTT (SIGMA #M-2128) in PBS Dubecco's 1× without Ca^2+ and Mg^2+) was added to a final volume of 100 μl of culture medium. Cell lines were incubated for additional 4 hours at 37° C. under humid atmosphere with 5% (v/v) CO2. The formation of blue formazan crystals was detected under a microscope. An equal volume of 10% SDS (MERCK, #926.238) in 10 mM HCl was added to each well and the plate was placed in the incubator overnight to dissolve formazan crystals. The plates were mixed to ensure complete solubilisation of formazan crystals and absorbance was measured at 570 nm and 620 nm. The percentage of viable cells was estimated using the formula: % cell viability=ΔOD(570-620) treated/ΔOD(570-620)control×100.
MP41, MP46 and MP66 cell lines come from uveal melanoma patient derived xenografts. They were cultured in RPMI medium supplemented with 20% of FCS.
All the uveal melanoma cell lines were treated for 72 h with different concentrations of the peptides TAZ, “LV”, YAP and TEAD (SEQ ID NO: 35, 36, 37). Cytotoxicity was analysed as described in example 2. […] The best effect was shown in MP41 with about 40% cytotoxicity at 100 μM.

[3] = test system: MP46 uveal melanoma cells; format: cell-based, human; conditions: 72 h
Protocol: as §1, §2

ES2 cells = experiment: MTT cytotoxicity assay, ES2; format: cell-based; conditions: 72 h, 0.1 to 100 μM (FIG. 7)
Protocol: as §3
ES2, IGROV-1, OVCAR8 and SKOV3 cell lines come from human ovarian cancer.
Cell-penetrating peptides (CPPs) comprising the binding site of TEAD to TAZ or YAP or of YAP to TEAD (TAZ, TEAD and YAP peptides, respectively) were chemically synthesized. The effect of the peptides on cell viability was assayed on several human ovarian cancer cell lines. All the ovarian cancer cell lines were treated for 72 h with different peptide concentrations. Cytotoxicity was analysed as described in example 2.

[4] = test system: colon, lung and ovarian cancer cell lines; experiment: MTT cytotoxicity, comparison of TAZ LV and VL peptides; format: cell-based, human; conditions: all lines tested except ES2: HCT116, HT29, SW480, OVCAR8, A549, HT1975; 72 h; 0.1 to 100 μM (FIGS. 5 to 8)
Protocol: as §3

| SMILES | cytotoxicity [1] [%] | IC50 [2] [µM] | IC50 [3] [µM] | effect on cellular viability, TAZ “LV” compared with TAZ “VL” (ES2 cells) | viability ([2]; human, 25 µM) | effect on cellular viability, TAZ “LV” compared with TAZ “VL” [4] | viability ([3]; human, 25 µM) |
| --- | --- | --- | --- | --- | --- | --- | --- |
| CC[C@H](C)[C@H](NC(=O)[C@H](CCCCN)NC(=O)[C@H](CCCCN)NC(=O)[C@H](CCCCN)NC(=O)[C@H](CCCCN)NC(=O)[C@@H](N)C(C)C)C(=O)N[C@@H](CCCCN)C(=O)N[C@@H](C)C(=O)N[C@@H](CCC(=O)O)C(=O)N[C@H](C(=O)N[C@@H](CCCCN)C(=O)N[C@H](C(=O)N[C@@H](CCCNC(=N)N)C(=O)N[C@@H](CC(C)C)C(=O)N[C@@H](CCC(N)=O)C(=O)N[C@@H](CC(C)C)C(=O)N[C@H](C(=O)N[C@@H](CCC(=O)O)C(=O)N[C@@H](Cc1ccccc1)C(=O)N[C@@H](CO)C(=O)N[C@@H](C)C(=O)N[C@@H](Cc1ccccc1)C(=O)N[C@H](C(=O)N[C@@H](CCC(=O)O)C(=O)N1CCC[C@H]1C(=O)N1CCC[C@H]1C(=O)N[C@@H](CC(=O)O)C(=O)N[C@@H](C)C(=O)N[C@H](C(=O)N[C@@H](CC(=O)O)C(=O)O)C(C)C)C(C)C)C(C)C)[C@@H](C)CC)[C@@H](C)CC [TEAD] (H-VKKKKIKAEIKIRLQLVEFSAFVEPPDAVD-OH; N-terminus and C-terminus assumed) | 60 | 35 | 44 | – | – | – | – |
| CC[C@H](C)[C@H](NC(=O)[C@H](CCCCN)NC(=O)[C@H](CCCCN)NC(=O)[C@H](CCCCN)NC(=O)[C@H](CCCCN)NC(=O)[C@@H](N)C(C)C)C(=O)N[C@@H](CCCCN)C(=O)N[C@@H](C)C(=O)N[C@@H](CCC(=O)O)C(=O)N[C@H](C(=O)N[C@@H](CCCCN)C(=O)N[C@H](C(=O)N1CCC[C@H]1C(=O)N1CCC[C@H]1C(=O)N[C@@H](Cc1c[nH]cn1)C(=O)N[C@@H](C)C(=O)N[C@@H](Cc1ccccc1)C(=O)N[C@@H](Cc1ccccc1)C(=O)N[C@@H](CC(C)C)C(=O)N[C@H](C(=O)N[C@@H](CCCCN)C(=O)N[C@@H](Cc1ccccc1)C(=O)N[C@@H](Cc1c[nH]c2ccccc12)C(=O)N[C@@H](C)C(=O)N[C@@H](CC(=O)O)C(=O)N[C@@H](CC(C)C)C(=O)N[C@@H](CC(N)=O)C(=O)N[C@@H](Cc1c[nH]c2ccccc12)C(=O)NCC(=O)N1CCC[C@H]1C(=O)N[C@@H](CO)C(=O)NCC(=O)N[C@@H](CCC(=O)O)C(=O)N[C@@H](CCC(=O)O)C(=O)N[C@@H](C)C(=O)NCC(=O)N[C@@H](C)C(=O)NCC(=O)O)C(C)C)[C@@H](C)CC)[C@@H](C)CC [TAZ “LV”] (H-VKKKKIKAEIKIPPHAFFLVKFWADLNWGPSGEEAGAG-OH; N-terminus and C-terminus assumed) | – | – | – | more effective than TAZ “VL” | about 20% | same effect | about 20% |
